Test: xn = mol fraction of the nth substance listed
Details: 101.3 kPa, Liquid; for viscosity: Capillary tube (Ostwald / Ubbelohde) method; for mass density: Vibrating tube method

CC(O)CNCC(C)O (stereo unspecified) [N-(2-hydroxypropyl)-2-hydroxy-1-propanamine] + O
Details	mass density, 323.15 K [kg/m3]	mass density, 333.15 K [kg/m3]	mass density, 343.15 K [kg/m3]	viscosity, 323.15 K [mPa·s]	viscosity, 333.15 K [mPa·s]	viscosity, 343.15 K [mPa·s]
x1 = 0.02	995.02	989.76	983.93	–	0.733	0.621
x1 = 0.0498	1003.09	996.93	990.37	–	1.355	1.061
x1 = 0.0701	1006.95	1000.34	993.22	2.408	1.816	1.412
x1 = 0.1001	1010.46	1003.16	995.55	3.78	2.719	2.042
x1 = 0.1999	1012.04	1004.03	995.78	12.06	7.5	5.05
x1 = 0.3006	1008.24	1000.17	991.86	24.56	14.15	8.7
x1 = 0.3963	1003.75	995.77	987.44	42.8	22.89	13.34
x1 = 0.5012	999.39	991.52	983.33	63.37	32.12	17.88
x1 = 0.5957	995.71	987.88	979.75	79.93	39.31	21.19
x1 = 0.7034	992.23	984.45	976.35	96.22	46.32	24.42
x1 = 0.8029	989.58	981.79	973.95	108.7	51.38	26.64
x1 = 0.9016	987.51	979.72	971.72	118	55.03	28.29
x1 = 1	984.9	977.3	969.58	125.7	57.99	29.55

— the NIST ThermoML archive (doi:10.1021/je030132i)
